According to patent US20240209456A1, “METHODS AND COMPOSITIONS RELATED TO CELL-CYCLE RNA's” (BETH ISRAEL DEACONESS MEDICAL CENTER, priority 2021, published 2024):
*1 amine or outer side, *2 acyl side, *3 side chain or, on linkers, in order; H or OH if unused. Where a SMILES comes first, the peptide text is derived from it. Bridges are numbered along the chain shown (N, C = ends). Roman numbers before positions name the chains, in order. [ ]: non-standard residue; d: D form. Actinocin(9to1) = Cc1c2oc3c(C)ccc(C(=O)[*:1])c3nc-2c(C(=O)[*:2])c(N)c1=O; NMeV = CN[C@H](C(=O)O)C(C)C; Sar = CNCC(=O)O

Columns and labels:
Format in all cases: cell-based, human
[1] = test system: acH2A.Z; assay: ChIP-Seq with acH2A.Z antibody, occupancy at TSSs; conditions: for number of TSS with at least / greater than 2-fold drop in acH2A.Z occupancy: HL-60, 2 hr treatment, vs cells without treatment, 38,512 TSS compared; for acH2A.Z enrichment at the TSS, genome-wide / acH2A.Z peak intensity ratio, MYB locus (DMSO = 0.62, ActD = 1.0) / acH2A.Z peak intensity ratio, PU.1 locus (DMSO = 1.0) / acH2A.Z peak intensity ratio, c-MYC locus (DMSO = 1): HL-60, 2 hr; for acH2A.Z enrichment at the TSS, genome-wide: vs mock-treated (DMSO), FIG. 4C; for acH2A.Z peak intensity ratio, MYB locus (DMSO = 0.62, ActD = 1.0) / acH2A.Z peak intensity ratio, PU.1 locus (DMSO = 1.0) / acH2A.Z peak intensity ratio, c-MYC locus (DMSO = 1): [DMSO/DRB/ActD]
Excerpt: (§1) Two transcription inhibitors, Actinomycin D (ActD; RNA Polymerase I, II and III inhibitor) and 5,6-Dichlorobenzimidazole 1-β-D-ribofuranoside (DRB; RNAPII Inhibitor), were used at concentrations sufficient to block both RNA Polymerases II and III. Cells were synchronized with a double thymidine block and released into S Phase with ActD/DRB added. The rationale behind the use of ActD and DRB is: (i) to globally assess the effect of SPEARs suppression over a short time frame; (ii) to test effects resulting from the two different pathways triggered by ActD and DRB; and (iii) to take advantage of the reversibility of DRB treatment. […] Two hours after drug treatment, cells were crosslinked and subjected to ChIP-Seq analyses. […] Relative changes were then investigated in the footprints of unmodified H2A.Z and acH2A.Z in the vicinity of TSSs that result from DRB- and ActD-induced inhibition of SPEARs. The enrichments of ChIP-Seq signals for H2A.Z and acH2A.Z around 38,512 TSS (defined in the hg38 UCSC canonical gene table) following drug treatment were then compared with their occupancy in mock-treated (DMSO) cells. […] ActD-treated cells followed this pattern with a greater than 2-fold decrease in the levels of acH2A.Z at 6,283 TSS compared to untreated samples. […] For the c-MYC and PU1 loci, respectively, the ratios of control (DMSO) to drug treated H2A.Z peak intensities were: [DMSO/DRB/ActD]^c-MYC=1/0.76/0.67 and [DMSO/DRB/ActD]^PU.1=1/0.87/0.82; and the ratios of control (DMSO) to drug treated acH2A.Z peak intensities were: [DMSO/DRB/ActD]^c-MYC=1/0.62/0.36 and [DMSO/DRB/ActD]^PU.1=1.0/0.25/0.13. […] For MYB the ratios of control (DMSO) to drug treated acH2A.Z peak intensities are: [DMSO/DRB/ActD]^MYB=0.62/0.89/1.0, which corresponds to the increases in its SPEARs levels (FIG. 10C).
(§2) Double Thymidine block (early S-phase block) was carried out as described. Briefly, HL-60 cells were grown overnight to 70-80% confluence, washed twice with 1×PBS and cultured in DMEM (10% FCS)+2.5 mM Thymidine for 18 h (first block). Thymidine was washed out with 1×PBS and cells were grown in DMEM (10% FCS). After 8 hrs cells were cultured in the presence of thymidine for 18 h (second block) and then released as described. Synchrony was monitored by flow cytometry analysis of propidium iodide-stained cells using a LSRII flow cytometer (BD Biosciences) at the Harvard Stem Cell Institute/Beth Israel Deaconess Center flow cytometry facility.
(§3) DRB and Actinomycin D treatments were carried out as described. Briefly, after release from double thymidine block, HL-60 cells were treated with 100 μM of 5,6-Dichlorobenzimidazole 1-β-D-ribofuranoside (DRB) (Sigma Aldrich) or 0.8 μM of Actinomycin D (Sigma Aldrich) as indicated at each time point.
(§4) ChIP was performed as follows. Cells were crosslinked with 1% formaldehyde for 10 min at r.t. Pellets of 1×10^6 cells were used for immunoprecipitation and lysed for 10 minutes on ice and chromatin fragmented using a Branson 250 digital sonicator. Each ChIP was performed with 4 ug of antibody, incubated overnight at 4° C. A 50/50 slurry of protein A and protein G Dynabeads was used to capture enriched chromatin, which was then washed before reverse-crosslinking and proteinase K digestion at 65° C. AMPure XP beads were used to clean up and isolate ChIP DNA for subsequent library construction. The following antibodies were used for ChIP: H2A.Z (Abcam ab4174, lot GR3176820-1), acH2A.Z (Abcam ab18262, lot GR306397-1), TIP60 antibody; and IgG (Abcam ab171870). Fold enrichment was calculated using the formula 2^(−ΔΔCt(ChIP/non-immune serum)). Primer sets used for ChIP are listed in Table 2. nRIP was performed and crosslinked nuclei were collected as follows: 1. 60×10^6 HL-60 cells were crosslinked with 1% formaldehyde (formaldehyde solution, freshly made: 50 mM HEPES-KOH; 100 mM NaCl; 1 mM EDTA; 0.5 mM EGTA; 11% formaldehyde) for 10 min at room temperature. […]

[2] = test system: H2A.Z; assay: ChIP-Seq with H2A.Z antibody, occupancy at TSSs; conditions: for number of TSS with comparable (2-fold) decrease in total H2A.Z occupancy: HL-60, 2 hr treatment, vs cells without treatment, 38,512 TSS compared; for occupancy levels of unmodified H2A.Z at the TSS, genome-wide / H2A.Z peak intensity ratio, PU.1 locus (DMSO = 1) / H2A.Z peak intensity ratio, c-MYC locus (DMSO = 1): HL-60, 2 hr; for occupancy levels of unmodified H2A.Z at the TSS, genome-wide: vs mock-treated (DMSO), FIG. 4C; for H2A.Z peak intensity ratio, PU.1 locus (DMSO = 1) / H2A.Z peak intensity ratio, c-MYC locus (DMSO = 1): [DMSO/DRB/ActD]
Excerpt: as §1, §2, §3, §4

[3] = test system: PU.1 SPEARs; assay: qRT-PCR / strand-specific qRT-PCR of PU.1 SPEARs; conditions: HL-60, DRB and ActD, FIG. 10C
Procedure: (§5) Total RNA isolation was carried out and all RNA samples used in this study were treated with DNase I (10 U of DNase I per 3 μg of total RNA; 37° C. for one hour; in the presence of RNase inhibitor). After DNase I treatment, RNA samples were extracted with acidic phenol (pH 4.3) to eliminate any remaining traces of DNA. cDNA syntheses were performed with Random Primers (Invitrogen) or gene-specific primers with Transcriptor Reverse Transcriptase (Roche Applied Science) according to the manufacturer's recommendation. cDNA was purified with a High Pure PCR Product Purification Kit (Roche Applied Science).
Sybr green reaction was performed using iQ Sybr Green supermix (Biorad, Hercules, CA) using the following parameters: 95° C. (10 min), 40 cycles of 95° C. (15 s) and 60° C. (1 min) 72° C. (1 min). TaqMan analysis was performed using Hotstart Probe One-step qRT-PCR master mix (USB) at the following conditions: 50° C. (10 min.), 95° C. (2 min.), and then 40 cycles of 95° C. (15 sec.) and 60° C. (60 sec.). […]

[4] = test system: MYB SPEARs; assay: qRT-PCR of MYB SPEARs; conditions: HL-60, DRB and ActD, FIG. 10C
Procedure: as §5
Sybr green reaction was performed using iQ Sybr Green supermix (Biorad, Hercules, CA) using the following parameters: 95° C. (10 min), 40 cycles of 95° C. (15 s) and 60° C. (1 min) 72° C. (1 min). TaqMan analysis was performed using Hotstart Probe One-step qRT-PCR master mix (USB) at the following conditions: 50° C. (10 min.), 95° C. (2 min.), and then 40 cycles of 95° C. (15 sec.) and 60° C. (60 sec.).

| Structure (SMILES) | number of TSS with at least / greater than 2-fold drop in acH2A.Z occupancy [1] | acH2A.Z enrichment at the TSS, genome-wide [1] | acH2A.Z peak intensity ratio, MYB locus (DMSO = 0.62, ActD = 1.0) [1] | acH2A.Z peak intensity ratio, PU.1 locus (DMSO = 1.0) [1] | acH2A.Z peak intensity ratio, c-MYC locus (DMSO = 1) [1] | number of TSS with comparable (2-fold) decrease in total H2A.Z occupancy [2] [TSS] | occupancy levels of unmodified H2A.Z at the TSS, genome-wide [2] | H2A.Z peak intensity ratio, PU.1 locus (DMSO = 1) [2] | H2A.Z peak intensity ratio, c-MYC locus (DMSO = 1) [2] | PU.1 SPEARs level upon transcription inhibitors [3] | MYB SPEARs level upon transcription inhibitors [4] |
| --- | --- | --- | --- | --- | --- | --- | --- | --- | --- | --- | --- |
| Cc1c2oc3c(C)ccc(C(=O)N[C@@H]4C(=O)N[C@H](C(C)C)C(=O)N5CCC[C@H]5C(=O)N(C)CC(=O)N(C)[C@@H](C(C)C)C(=O)O[C@@H]4C)c3nc-2c(C(=O)N[C@@H]2C(=O)N[C@H](C(C)C)C(=O)N3CCC[C@H]3C(=O)N(C)CC(=O)N(C)[C@@H](C(C)C)C(=O)O[C@@H]2C)c(N)c1=O [ActD, Actinomycin D] (I: T[dV]P[Sar][NMeV] / II: T[dV]P[Sar][NMeV]; ester I:1-I:C, II:1-II:C; linker I:N-II:N via Actinocin(9to1)) | 6,283 TSS | drastic reduction | 1.0 | 0.13 | 0.36 | 650 | only modest changes | 0.82 | 0.67 | negatively affected | positively affected |
| OC[C@H]1O[C@@H](n2cnc3cc(Cl)c(Cl)cc32)[C@H](O)[C@@H]1O [DRB, 5,6-Dichlorobenzimidazole 1-β-D-ribofuranoside] | 3,394 TSS | drastic reduction | 0.89 | 0.25 | 0.62 | 398 | only modest changes | 0.87 | 0.76 | negatively affected | positively affected |
